# Results taken from ChEMBL document CHEMBL1201862, “PubChem BioAssay data set” (2004).
#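 48-hour exposure; five concentrations; linearly interpolated endpoints. GI50 = concentration required for 50% inhibition of growth.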 Active and inactive are the calls of the source. No stated cut-off is given here; in the data, active = GI50 up to about 1.1 µM and inactive = higher.
# Key:
# Assay in all cases: DTP human tumour cell line panel, 48 h
# UACC-62 = test system: UACC-62
# NCI/ADR-RES = test system: NCI/ADR-RES
# ACHN = test system: ACHN
# 786-0 = test system: 786-0
# M14 = test system: M14
# RPMI-8226 = test system: RPMI-8226
# MCF7 = test system: MCF7
# MDA-MB-231 = test system: MDA-MB-231
# EKVX = test system: EKVX
# SK-MEL-5 = test system: SK-MEL-5
# SNB-75 = test system: SNB-75
# NCI-H23 = test system: NCI-H23
# PC-3 = test system: PC-3
# KM12 = test system: KM12
# HT-29 = test system: HT-29
# SK-MEL-28 = test system: SK-MEL-28
# IGROV-1 = test system: IGROV-1
# HCT-15 = test system: HCT-15
# CCRF-CEM = test system: CCRF-CEM
# LOX IMVI = test system: LOX IMVI
Compound,GI50 (UACC-62),GI50 (NCI/ADR-RES),GI50 (ACHN),GI50 (786-0),GI50 (M14),GI50 (RPMI-8226),GI50 (MCF7),GI50 (MDA-MB-231),GI50 (EKVX),GI50 (SK-MEL-5),GI50 (SNB-75),GI50 (NCI-H23),GI50 (PC-3),GI50 (KM12),GI50 (HT-29),GI50 (SK-MEL-28),GI50 (IGROV-1),GI50 (HCT-15) [µM],GI50 (CCRF-CEM),GI50 (LOX IMVI)
COc1cc2c(cc1OCCCCN1CCN(CCCCOc3cc4c(cc3OC)C(=O)N3CCC[C@H]3C=N4)CC1)N=C[C@@H]1CCCN1C2=O,< 0.0105 µM (active),1.94 µM (inactive),0.0448 µM (active),< 0.014 µM (active),0.02 µM (active),< 0.0125 µM (active),< 0.0318 µM (active),0.0378 µM (active),0.281 µM (active),0.0138 µM (active),0.0262 µM (active),< 0.0241 µM (active),0.0873 µM (active),0.0628 µM (active),0.0443 µM (active),0.0206 µM (active),0.146 µM (active),1.14,,
C/C(=N\Nc1nc2ccccc2o1)c1cc2ccccc2cn1,0.0775 µM (active),< 0.01 µM (active),< 0.01 µM (active),< 0.01 µM (active),< 0.01 µM (active),< 0.0235 µM (active),< 0.01 µM (active),< 0.01 µM (active),< 0.01 µM (active),0.0101 µM (active),0.476 µM (active),< 0.0187 µM (active),< 0.01 µM (active),0.0346 µM (active),< 0.01 µM (active),0.364 µM (active),< 0.01 µM (active),< 0.01,< 0.01 µM (active),
CCOP(C)(=O)C(N)Cc1ccc(OC)c(OC)c1 (stereo not drawn),> 100 µM (inactive),> 100 µM (inactive),> 100 µM (inactive),> 100 µM (inactive),> 100 µM (inactive),> 100 µM (inactive),> 100 µM (inactive),> 100 µM (inactive),> 100 µM (inactive),> 100 µM (inactive),> 100 µM (inactive),> 100 µM (inactive),> 100 µM (inactive),,> 100 µM (inactive),> 100 µM (inactive),> 100 µM (inactive),> 100,> 100 µM (inactive),> 100 µM (inactive)
Nc1c(Br)cc(-c2cc(Br)c(N)c(Br)c2)cc1Br,> 100 µM (inactive),> 100 µM (inactive),> 100 µM (inactive),> 100 µM (inactive),> 100 µM (inactive),> 100 µM (inactive),> 100 µM (inactive),> 100 µM (inactive),> 100 µM (inactive),> 100 µM (inactive),59 µM (inactive),> 100 µM (inactive),> 100 µM (inactive),> 100 µM (inactive),> 100 µM (inactive),> 100 µM (inactive),> 100 µM (inactive),,> 100 µM (inactive),> 100 µM (inactive)
C/C(O)=C/C(=O)c1[nH]c(C(=O)O)cc1C1CCN(Cc2ccccc2)C1=O (stereo not drawn),18.5 µM (inactive),12 µM (inactive),28.6 µM (inactive),21 µM (inactive),15.3 µM (inactive),20.7 µM (inactive),22.1 µM (inactive),33.2 µM (inactive),21.3 µM (inactive),19.9 µM (inactive),20.8 µM (inactive),17.9 µM (inactive),32.7 µM (inactive),29.9 µM (inactive),29.2 µM (inactive),23.2 µM (inactive),25.3 µM (inactive),11,,
COC(=O)c1c(O)ccc2c1c1cc3ccccc3c(O)c1n2Cc1ccccc1Cl,23.4 µM (inactive),21.8 µM (inactive),22.4 µM (inactive),22.3 µM (inactive),23.4 µM (inactive),20.4 µM (inactive),30.3 µM (inactive),32.3 µM (inactive),25.8 µM (inactive),19.1 µM (inactive),,18.4 µM (inactive),30 µM (inactive),19.3 µM (inactive),11.7 µM (inactive),14.5 µM (inactive),19.4 µM (inactive),19.2,34.7 µM (inactive),
O=C(Nc1cc2cc([N+](=O)[O-])ccc2oc1=O)c1cccs1,,62.2 µM (inactive),49 µM (inactive),89.5 µM (inactive),58.7 µM (inactive),34 µM (inactive),19.6 µM (inactive),34.9 µM (inactive),61.7 µM (inactive),16 µM (inactive),2.78 µM (inactive),> 10 µM (inactive),37.8 µM (inactive),24.5 µM (inactive),39.5 µM (inactive),58.9 µM (inactive),34.4 µM (inactive),,11.3 µM (inactive),20.3 µM (inactive)
Cc1ccc(SCC(OCn2cnc3c(N)ncnc32)[C@H](C)F)cc1 (stereo partly drawn),> 100 µM (inactive),73.1 µM (inactive),> 100 µM (inactive),> 100 µM (inactive),> 100 µM (inactive),> 100 µM (inactive),> 100 µM (inactive),> 100 µM (inactive),,41.4 µM (inactive),> 100 µM (inactive),> 100 µM (inactive),> 100 µM (inactive),> 100 µM (inactive),> 100 µM (inactive),> 100 µM (inactive),> 100 µM (inactive),> 100,> 100 µM (inactive),> 100 µM (inactive)
CN(C)Cc1ccc(O)c(CN(C)C)n1,> 100 µM (inactive),> 100 µM (inactive),> 100 µM (inactive),> 100 µM (inactive),> 100 µM (inactive),> 100 µM (inactive),> 100 µM (inactive),> 100 µM (inactive),> 100 µM (inactive),> 100 µM (inactive),> 100 µM (inactive),> 100 µM (inactive),> 100 µM (inactive),> 100 µM (inactive),> 100 µM (inactive),> 100 µM (inactive),> 100 µM (inactive),> 100,,> 100 µM (inactive)
COCN(CCC1=CCCCC1)C(=O)OC,> 100 µM (inactive),> 100 µM (inactive),> 100 µM (inactive),> 100 µM (inactive),> 100 µM (inactive),> 100 µM (inactive),43.1 µM (inactive),> 100 µM (inactive),> 100 µM (inactive),81.7 µM (inactive),> 100 µM (inactive),51.6 µM (inactive),> 100 µM (inactive),> 100 µM (inactive),> 100 µM (inactive),> 100 µM (inactive),> 100 µM (inactive),> 100,,
c1cc2ccc3cc4ncccc4c4ccc(c1)c2c34,20.6 µM (inactive),31.6 µM (inactive),6.87 µM (inactive),18.8 µM (inactive),71.6 µM (inactive),10.1 µM (inactive),0.338 µM (active),20.8 µM (inactive),22.5 µM (inactive),,19.8 µM (inactive),27.5 µM (inactive),33 µM (inactive),10.5 µM (inactive),23.2 µM (inactive),43.1 µM (inactive),1.32 µM (inactive),7.73,19.7 µM (inactive),12.1 µM (inactive)
Cc1nc(O)nc2nc3ccc(Cl)cc3c(N(CCO)CCO)c12,> 100 µM (inactive),> 100 µM (inactive),> 100 µM (inactive),> 100 µM (inactive),> 100 µM (inactive),52.6 µM (inactive),> 100 µM (inactive),39 µM (inactive),0.762 µM (active),> 100 µM (inactive),,> 100 µM (inactive),> 100 µM (inactive),40 µM (inactive),> 100 µM (inactive),> 100 µM (inactive),> 100 µM (inactive),94.4,> 100 µM (inactive),> 100 µM (inactive)
O=C(OCC1OC2OC(c3ccccc3)(n3ccc4c([N+](=O)[O-])ccnc43)OC2C1OC(=O)c1ccccc1)c1ccccc1 (stereo not drawn),> 100 µM (inactive),> 100 µM (inactive),> 100 µM (inactive),> 100 µM (inactive),> 100 µM (inactive),> 100 µM (inactive),> 100 µM (inactive),> 100 µM (inactive),> 100 µM (inactive),> 100 µM (inactive),,> 100 µM (inactive),> 100 µM (inactive),> 100 µM (inactive),> 100 µM (inactive),> 100 µM (inactive),> 100 µM (inactive),> 100,> 100 µM (inactive),> 100 µM (inactive)
CC(=O)Oc1ccc2c(c1)c1c(OC(C)=O)c3ccccc3c(OC(C)=O)c1n2Cc1cccc(C)c1,45.4 µM (inactive),> 100 µM (inactive),31.8 µM (inactive),36.2 µM (inactive),30.3 µM (inactive),20.5 µM (inactive),44.3 µM (inactive),31.1 µM (inactive),15.8 µM (inactive),,18.5 µM (inactive),38.7 µM (inactive),52.4 µM (inactive),28.4 µM (inactive),> 100 µM (inactive),> 100 µM (inactive),21.2 µM (inactive),53.7,17.1 µM (inactive),
O=C(c1ccccc1)C1C(c2ccccc2[N+](=O)[O-])N1C1CCCCC1 (stereo not drawn),7.4 µM (inactive),6.05 µM (inactive),1.94 µM (inactive),1.99 µM (inactive),9.42 µM (inactive),1.72 µM (inactive),3.65 µM (inactive),7.69 µM (inactive),13.7 µM (inactive),11 µM (inactive),,16.4 µM (inactive),3.95 µM (inactive),11.9 µM (inactive),4.1 µM (inactive),> 42.3 µM (inactive),4.25 µM (inactive),3.52,,2.1 µM (inactive)
